According to patent US8637467B2, “Pharmaceutical being used for treating cancer and fibrosis disease and the composition and uses thereof” (Wuxi MTLH Biotechnology Co., Ltd., priority 2008, dated 2014):
Where no end group is shown, it is not given here.

Experiments:
[1] = system: human liver cancer BEL-7402; assay: Human liver cancer BEL-7402 xenograph nude mice; type: in vivo; details: for T/C(%) relative tumor inhibition rate: 6 times a week, 3 weeks
Experimental: Experimental animals: Female BALB/cA nude mice, age 35-40 days, weight 18-22 g, provided by Shanghai Silaike Experimental Animal Co. Ltd., certificate number: SOCK (Shanghai) 2007-0005.
The tumor of xenograph nude mice grew to 100˜300 mm^3. Tumor mice were divided into different groups for drug testing. In the experiment below, there were 12 nude mice in negative control group, and 6 nude mice in the group with tested drug. Tumor diameter was measured three times each week, and mice weight was measured at the same time.
T/C (relative tumor inhibition rate) % was calculated as below: • (1) tumor volume, TV, calculated as below: TV=½×a×b^2 • A and b are length and width. • (2) relative tumor volume, RTV, calculated as below: RTV=TVt/TV0. • TV0 ? is tumor volume at the beginning of drug use (d0), TVt is tumor volume at later time point. • (3) relative tumor inhibition rate T/C (%), calculate as below:
[formula] TRTV: treatment group RTV; CRTV: negative control RTV
[…] Docetaxol was positive control, at dosing of 20 mg/kg, once a week. Negative control was given saline solution. The xenograph nude mice were treated for 3 weeks.

[2] = system: Rat CC14 liver damage model; assay: Rat CC14 liver damage model (chronic liver fibrosis); type: in vivo, SD rat; design: Liver parameters: unit not given here
Experimental: To evaluate the protective effect of peptide SEQ ID NO:1 on liver damage, we used chronic liver fibrosis model (rat CC14 model) for efficacy evaluation.
Rat CC14 liver damage model
(1) Control group: saline, sc, 2 ml/kg, 10 rats
(2) model group: 40% CC14, sc, 2 ml/kg, 17 rats
(3) Gan-li-xin group: 25 mg/kg, iv, 10 ml/kg, 15 rats
(4) Prevention, high dose group: 50 μg peptide SEQ ID NO:1/kg, iv, 10 ml/kg, 17 rats
(5) Prevention, low dose group: 10 μg peptide SEQ ID NO:1/kg, iv, 10 ml/kg, 17 rats
(6) Treatment, high dose group: 100 μg peptide SEQ ID NO:1/kg, iv, 10 ml/kg, 17 rats
(7) Treatment, high dose group: 20 μg peptide SEQ ID NO:1/kg, iv, 10 ml/kg, 17 rats
Except for control group, inject 40% CC14 subcutaneously twice (Tuesday, and Friday) every week in Group (2) to (6), drug volume (0.2 ml/100 g, the first time 0.5 ml/100 g). CC14 Model construction is 6 weeks. Parallel to the model construction, inject intravenously peptide SEQ ID NO:1 at 50 μg/kg and 10 μg/kg in group (4) and (5), respectively, once a day for 6 weeks. For Group (3), (6), and (7), starting from week 5, inject Gan-li-xin 25 mg/kg, peptide SEQ ID NO:1 at 100 μg/kg and 20 μg/kg, respectively, once a day, continuously for 2 weeks.
All rats were weighed once a week during model construction and drug injection. According to weight, the dose of drugs is adjusted. 24 hours after the last time of CC14 injection, liver weight parameters were examined.
Blood was extracted from femoral artery and serum was separated. The following parameters were examined: serum alanine aminotransferase (ALT), aspartate aminotransferase (AST), Bilirubin (TB), Alkaline phosphatase (ALP), total protein (TP), albumin (ALB), globulin (G), albumin/globulin ratio (A/G), glucose (GLU), total cholesterol (TCH), triglyceride (TG).
Liver homogenate: to examine cholesterol (TCH), triglyceride (TG), alanine aminotransferase (ALT), and aspartate aminotransferase (AST).
[…], dry at 110 C, examine Hydroxyproline (HPA).
Part of the liver is fixed in formalin for histology examination.

[3] = system: α-SMA protein; assay: Western blot of α-SMA protein expression in HSC; type: cell-based, SD rat; details: FIG. 5
Experimental: HSC from SD rats were separated using centrifuging on gradient created by Pronase-collagenase and Nycodenz. HSC cells at 1.5×10^5/cm2 was plated at 6-well plate, or culture dish (100 mm diameter). The culture medium is DMEM with 20% serum from newborn calf. The purity of HSC cells was determined using Vitamin A self-fluorescence and anti-Desmin immunocytochemistry experiments. Cell viability was determined using trypan blue staining. First generation HSC's purity and viability were 90% and 95% respectively. HSC can self-activate if grown in non-ECM condition, which means HSC can express α-SMA, and Vitamin A drop disappears. After cell fusion, activated HSC is released with trypsin, and propagate.
Collect cells and add cell lysis buffer, extract total protein. Total protein amount was determined using Bradford assay. 40 μg total protein was examined using 10% SDS polyacrylamide gel. The gel was probed using monoclonal antibody against α-SMA.

[4] = system: human liver cancer cell BEL-7402; assay: Cancer cell attachment to base membrane; type: cell-based; details: incubated with cancer cells for 12 hours, FIG. 6
[5] = Prevention, High dose 50 μg/kg iv, once a day for 6 weeks
[6] = Prevention, low dose 10 μg/kg iv, once a day for 6 weeks
[7] = Treatment, High dose 100 μg/kg iv, once a day for 2 weeks from week 5
[8] = Treatment, low dose 20 μg/kg iv, once a day for 2 weeks from week 5

## SKVTKKYHEVLQLRPKTGVRGLHKSLTDVALEHHEECDCVCRGSTGG-OH (cysteines drawn unpaired) [Peptide SEQ ID NO:1]
[1]; 0.0625 mg/kg IV
  T/C(%) relative tumor inhibition rate: 58.56%
[1]; 0.125 mg/kg IV
  T/C(%) relative tumor inhibition rate: 62.10%
[1]; 0.25 mg/kg IV
  T/C(%) relative tumor inhibition rate: 69.06%
[1]; 0.5 mg/kg IV
  T/C(%) relative tumor inhibition rate: 64.90%
[1]; BEL-7402, 1 mg/kg
  inhibition, tumor: 39.7%
[2]; [5]
  ALB (albumin), serum: 20.8 ± 2.0 g/L
  ALP (alkaline phosphatase), serum: 266.3 ± 85.7 IU/L
  ALT (alanine aminotransferase), serum: 75 ± 29.4 IU/L
  AST (aspartate aminotransferase), serum: 236.8 ± 27.2 IU/L
  Bilirubin, serum: 3.3 ± 0.1 µmol/L
  GLU (glucose), serum: 6.5 ± 0.9 mmol/L
  Liver parameters: 4.3 ± 0.4
  Liver weight: 12.1 ± 2.5 g
  TCH (total cholesterol), serum: 1.9 ± 0.3 mmol/L
  TG (triglyceride), serum: 0.6 ± 0.1 mmol/L
  TP (total protein), serum: 68.3 ± 4.1 g/L
  hydroxyproline amount in rat liver: 0.216 ± 0.062 ug/mg wet weight
[2]; [6]
  ALB (albumin), serum: 18.8 ± 2.4 g/L
  ALP (alkaline phosphatase), serum: 304.3 ± 90.4 IU/L
  ALT (alanine aminotransferase), serum: 80.6 ± 21.3 IU/L
  AST (aspartate aminotransferase), serum: 248.8 ± 38.3 IU/L
  Bilirubin, serum: 3.3 ± 0.5 µmol/L
  GLU (glucose), serum: 6.2 ± 0.7 mmol/L
  Liver parameters: 4.1 ± 0.4
  Liver weight: 11.3 ± 2.5 g
  TCH (total cholesterol), serum: 1.6 ± 0.3 mmol/L
  TG (triglyceride), serum: 0.6 ± 0.2 mmol/L
  TP (total protein), serum: 66.4 ± 4.6 g/L
  hydroxyproline amount in rat liver: 0.192 ± 0.045 ug/mg wet weight
[2]; [7]
  ALB (albumin), serum: 19.7 ± 3.7 g/L
  ALP (alkaline phosphatase), serum: 216.5 ± 91.0 IU/L
  ALT (alanine aminotransferase), serum: 69.8 ± 31.3 IU/L
  AST (aspartate aminotransferase), serum: 219.6 ± 56.7 IU/L
  Bilirubin, serum: 2.9 ± 0.4 µmol/L
  GLU (glucose), serum: 6.3 ± 1.0 mmol/L
  Liver parameters: 4.0 ± 0.5
  Liver weight: 10.1 ± 3.2 g
  TCH (total cholesterol), serum: 2.1 ± 0.8 mmol/L
  TG (triglyceride), serum: 0.5 ± 0.2 mmol/L
  TP (total protein), serum: 70.4 ± 4.4 g/L
  hydroxyproline amount in rat liver: 0.165 ± 0.038 ug/mg wet weight
[2]; [8]
  ALB (albumin), serum: 18.8 ± 2.5 g/L
  ALP (alkaline phosphatase), serum: 357.1 ± 120.7 IU/L
  ALT (alanine aminotransferase), serum: 90.9 ± 37.3 IU/L
  AST (aspartate aminotransferase), serum: 260.0 ± 73.1 IU/L
  Bilirubin, serum: 3.3 ± 0.8 µmol/L
  GLU (glucose), serum: 6.1 ± 0.9 mmol/L
  Liver parameters: 4.4 ± 0.8
  Liver weight: 12.9 ± 4.7 g
  TCH (total cholesterol), serum: 1.6 ± 0.5 mmol/L
  TG (triglyceride), serum: 0.5 ± 0.2 mmol/L
  TP (total protein), serum: 69.1 ± 6.1 g/L
  hydroxyproline amount in rat liver: 0.222 ± 0.048 ug/mg wet weight
[2]; prevention high dose group, 3 cases
  steatosis and fat cavities in liver cells (histology): 50-60%
[2]; prevention high dose group, 5 cases
  steatosis and fat cavities in liver cells (histology): 60-80%
[2]; prevention low dose group, all cases
  steatosis and fat cavities in liver cells (histology): 60-80%
[2]; serum biochemical parameters, liver hydroxyproline amount, liver pathological features
  liver damage caused by CC14 in rat (summary): can improve liver damage caused by CC14 in rat
[2]; treatment high dose group, 2 cases
  steatosis and fat cavities in liver cells (histology): Over 80%
[2]; treatment high dose group, 2 cases with less steatosis
  steatosis and fat cavities in liver cells (histology): 50-60%
[2]; treatment high dose group, 4 cases with even less steatosis
  steatosis and fat cavities in liver cells (histology): < 30%
[3]; after 48 hours
  α-SMA protein expression (Western Blot): starts to decrease α-SMA protein expression
[3]; after 72 hours
  α-SMA protein expression (Western Blot): significantly decrease α-SMA protein expression
[4]
  cancer cell attachment to base membrane: inhibited cancer cell attachment to base membrane
